Data on 37 substances can be found in patent US11214803B2, “Modulators of YAP1 expression” (Ionis Pharmaceuticals, Inc., priority 2019, dated 2022).

Strand notation (5' to 3'): a small letter for the sugar, then the base; units joined by * are phosphorothioate-linked, units joined directly phosphodiester-linked; [ ] holds rarer units or linkages, { } end groups; capitals alone tell only the bases. k = constrained ethyl (cEt); [5mC] = 5-methylcytosine; d = 2'-deoxy (DNA)

The data set deals with Yap1 mRNA. The experiment in a line: Antisense inhibition of human Yap1 in A-431 cells by cEt gapmers, single dose (Example 2, RTS4814). It counts as cell-based. As for the experimental part: Modified oligonucleotides were designed to target a Yap1 nucleic acid and were tested for their effect on Yap1 mRNA level in vitro. The modified oligonucleotides were tested in a series of experiments that had similar culture conditions. Cultured A-431 cells at a density of 5,000 cells per well were treated using free uptake with 2,000 nM of modified oligonucleotide. After a treatment period of approximately 48 hours, RNA was isolated from the cells and Yap1 mRNA levels were measured by quantitative real-time RTPCR. Human primer probe set RTS4814 was used to measure mRNA levels. Yap1 mRNA levels were normalized to total RNA content, as measured by RIBOGREEN®. Results are presented in the tables below as percent control of the amount of Yap1 mRNA relative to untreated control cells (% UTC). The modified oligonucleotides with percent control values marked with an asterisk (*) target the amplicon region of the primer probe set. Additional assays may be used to measure the potency and efficacy of the modified oligonucleotides targeting the amplicon region.
The newly designed modified oligonucleotides in the Tables below were designed as 3-10-3 cEt gapmers. The gapmers are 16 nucleosides in length, wherein the central gap segment comprises of ten 2′-deoxynucleosides and is flanked by wing segments on the 5′ direction and the 3′ direction comprising three nucleosides each. Each nucleoside in the 5′ wing segment and each nucleoside in the 3′ wing segment has a cEt sugar modification. The internucleoside linkages throughout each gapmer are phosphorothioate (P═S) linkages. All cytosine residues throughout each gapmer are 5-methylcytosines.
“Start site” indicates the 5′-most nucleoside to which the gapmer is targeted in the human gene sequence. “Stop site” indicates the 3′-most nucleoside to which the gapmer is targeted human gene sequence. […] Activity ofthe modified oligonucleotide may be defined in a different experiment.

Where [1] appears, read: Table 25, Yap1 mRNA as percent of untreated control, 3-10-3 cEt gapmers targeting SEQ ID NO.: 1, and 2.
The mark [2] stands for this setting: Table 18, A-431 cells, 5,000 cells per well, free uptake, 2,000 nM modified oligonucleotide, approx. 48 hours, RTS4814, normalized to RIBOGREEN, Yap1 mRNA as percent of untreated control.
Where [3] appears, read: Table 22, Yap1 mRNA as percent of untreated control, 3-10-3 cEt gapmers, single dose.
Setting [4] is: Yap1 mRNA as percent of untreated control, A-431 cells, 3-10-3 cEt gapmers targeting SEQ ID NO.: 1, and 2, Table 30.
Where [5] appears, read: Table 19, A-431 cells, 5,000 cells per well, free uptake, 2,000 nM modified oligonucleotide, approx. 48 hours, RTS4814, normalized to RIBOGREEN, Yap1 mRNA as percent of untreated control.
[6] abbreviates: Table 21, Yap1 mRNA, percent of untreated control, 3-10-3 cEt gapmers targeting SEQ ID NO.: 1 and 2.
Where [7] appears, read: Table 33, Yap1 mRNA, percent of untreated control, 3-10-3 cEt gapmers targeting SEQ ID NO.: 1, and 2.
Setting [8] is: Table 32, Yap1 mRNA, percent of untreated control, 3-10-3 cEt gapmers targeting SEQ ID NO.: 1, and 2.
[9] abbreviates: Table 5, A-431 cells, 5,000 cells per well, free uptake, 2,000 nM modified oligonucleotide, approx. 48 hours, RTS4814, normalized to RIBOGREEN, Yap1 mRNA relative to untreated control cells.
Where [10] appears, read: Table 23, Yap1 mRNA as percent of untreated control, 3-10-3 cEt gapmers, single dose.

For the substance “1076459 (antisense k[5mC]*kT*kT*d[5mC]*dA*dA*d[5mC]*dA*dA*dG*dA*d[5mC]*dA*kG*kG*kT) [Compound 1076459]”, under setting [1], the “YAP1 (% UTC)” value is 4 % UTC.
For the substance “1076228 (kA*kT*kT*dA*dA*d[5mC]*d[5mC]*dT*d[5mC]*dA*dG*dT*dG*kA*kG*k[5mC]; antisense) [Compound 1076228]”, the “YAP1 (% UTC)” value under setting [2] was 69 % UTC.
On to “1075272 (antisense kA*kA*kT*dT*dA*dG*d[5mC]*d[5mC]*dA*dG*d[5mC]*dA*dT*kG*k[5mC]*kA) [Compound 1075272]”, for which the “YAP1 (% UTC)” value under setting [3] was 110 % UTC.
Take “1075344 (antisense kT*kA*kA*d[5mC]*dT*dA*dA*dA*dA*dG*dG*dG*dA*kG*kT*kA) [compound 1075344]”: the “YAP1 (% UTC)” value under setting [4] is 91 % UTC.
“1075269 (antisense kT*kT*kA*dT*dT*dA*dA*d[5mC]*d[5mC]*dT*dG*dG*dA*kG*kA*kG) [Compound 1075269]”: under setting [5], the “YAP1 (% UTC)” value is 13 % UTC.
In the case of “1074983 (antisense k[5mC]*kA*k[5mC]*d[5mC]*dT*dT*dT*dT*dA*dT*dT*dG*d[5mC]*k[5mC]*kA*kG) [Compound 1074983]”, the “YAP1 (% UTC)” value under setting [6] stood at 11 % UTC.
Turning to “1076307 (kG*kT*kA*dA*dT*dT*dA*d[5mC]*d[5mC]*dT*d[5mC]*dT*dA*kA*kT*k[5mC]; antisense) [compound 1076307]”, the “YAP1 (% UTC)” value under setting [7] is recorded as 38 % UTC.
As to “1075303 (kT*kA*kA*dA*d[5mC]*dT*dA*dA*dT*d[5mC]*dT*dA*d[5mC]*kA*kA*k[5mC]; antisense) [Compound 1075303]”, the “YAP1 (% UTC)” value under setting [6] is on record as 100 % UTC.
Turning to “1074279 (antisense kG*kT*k[5mC]*dA*dA*dG*d[5mC]*d[5mC]*dT*dT*dG*dG*dG*kT*k[5mC]*kT) [Compound 1074279]”, the “YAP1 (% UTC)” value under setting [6] amounted to 13 % UTC.
Consider “1075378 (antisense kA*kA*kA*dA*d[5mC]*dT*dA*dA*dT*d[5mC]*dA*dT*d[5mC]*kG*kA*kT) [compound 1075378]”, for which the “YAP1 (% UTC)” value under setting [8] is given as 83 % UTC.
As for “1076165 (k[5mC]*k[5mC]*k[5mC]*d[5mC]*dA*dA*dG*dG*dA*d[5mC]*dT*dT*dG*k[5mC]*k[5mC]*kA; antisense) [Compound 1076165]”, under setting [5], the “YAP1 (% UTC)” value is 79 % UTC.
“716374 (kG*kG*kT*d[5mC]*dA*dG*dT*dG*dT*d[5mC]*d[5mC]*d[5mC]*dA*kG*kG*kA; antisense) [Compound 716374]”: the “YAP1 (% UTC)” value under setting [9] is listed as 54 % UTC.
On to “1075539 (k[5mC]*kT*kT*dA*dA*dG*dG*dG*dA*dT*dG*dG*dA*kA*k[5mC]*kA; antisense) [compound 1075539]”, for which the “YAP1 (% UTC)” value under setting [7] is listed as 79 % UTC.
Turning to “716449 (kG*kG*kT*d[5mC]*dA*dT*dT*dT*dG*d[5mC]*d[5mC]*dT*dA*kG*kG*kT; antisense) [Compound 716449]”, under setting [9], the “YAP1 (% UTC)” value amounted to 49 % UTC.
As for “716412 (kG*kT*kA*dG*dT*d[5mC]*dT*dG*dG*dG*dA*dA*dA*k[5mC]*kG*kG; antisense) [Compound 716412]”, the “YAP1 (% UTC)” value (A-431 cells, 5,000 cells per well, free uptake, 2,000 nM modified oligonucleotide, approx. 48 hours, RTS4814, normalized to RIBOGREEN, Table 4, asterisk (*) = targets amplicon region of primer probe set) turned out to be 41 % UTC.
As to “1074596 (antisense kT*kT*k[5mC]*dT*dA*dT*d[5mC]*d[5mC]*dA*dG*dG*dG*dT*k[5mC]*kA*kA) [Compound 1074596]”, under setting [2], the “YAP1 (% UTC)” value is 12 % UTC.
Consider “1076050 (k[5mC]*kT*kT*dT*dA*dG*dA*dT*dT*dA*dA*dA*dG*kG*k[5mC]*kT; antisense) [compound 1076050]”, for which the “YAP1 (% UTC)” value under setting [8] worked out at 45 % UTC.
Take “1075433 (antisense kT*kT*kA*dA*d[5mC]*dT*dA*dA*d[5mC]*dT*dA*dA*dA*k[5mC]*kT*kG) [Compound 1075433]”: under setting [10], the “YAP1 (% UTC)” value was determined as 124 % UTC.
For the substance “1074212 (antisense kG*k[5mC]*kT*dT*d[5mC]*d[5mC]*dG*dG*dA*dG*d[5mC]*d[5mC]*dT*k[5mC]*kA*kT) [Compound 1074212]”, the “YAP1 (% UTC)” value under setting [2] was 53 % UTC.
For “716528 (antisense kT*kT*kA*dG*dG*dT*d[5mC]*dT*d[5mC]*d[5mC]*dT*dT*d[5mC]*kA*kG*kG) [Compound 716528]”, the “YAP1 (% UTC)” value (Table 6, A-431 cells, 5,000 cells per well, free uptake, 2,000 nM modified oligonucleotide, approx. 48 hours, RTS4814, normalized to RIBOGREEN, Yap1 mRNA relative to untreated control cells) is reported as 70 % UTC.
With “1076197 (kT*kA*kT*dT*dA*dT*d[5mC]*dA*dA*dG*dG*dG*dA*kA*kT*kT; antisense) [Compound 1076197]”, the “YAP1 (% UTC)” value under setting [5] amounted to 94 % UTC.
For “1076518 (antisense kG*kA*kT*dA*dA*dG*d[5mC]*dA*d[5mC]*d[5mC]*dA*d[5mC]*d[5mC]*kA*kT*kA) [Compound 1076518]”, where the note is “Table 20, Yap1 mRNA, percent of untreated control, 3-10-3 cEt gapmers targeting SEQ ID NO.: 1 and 2”, the “YAP1 (% UTC)” value was 25 % UTC.
Take “1076005 (kG*kT*kA*d[5mC]*dA*dA*dA*dA*dT*d[5mC]*dT*d[5mC]*d[5mC]*kA*kG*kG; antisense) [Compound 1076005]”: the “YAP1 (% UTC)” value under setting [5] is listed as 69 % UTC.
With “1075594 (kT*kG*kA*dG*dA*dA*dT*dA*dT*dT*d[5mC]*d[5mC]*dT*k[5mC]*k[5mC]*k[5mC]; antisense) [Compound 1075594]”, the “YAP1 (% UTC)” value (Table 24, Yap1 mRNA as percent of untreated control, 3-10-3 cEt gapmers targeting SEQ ID NO.: 1, and 2) is 64 % UTC.
Take “1075559 (kG*kA*kT*dA*dT*dT*dA*dA*dG*dG*dT*dG*dG*k[5mC]*kT*kT; antisense) [Compound 1075559]”: the “YAP1 (% UTC)” value under setting [6] is 24 % UTC.
Regarding “1074471 (k[5mC]*k[5mC]*k[5mC]*d[5mC]*d[5mC]*d[5mC]*d[5mC]*dA*d[5mC]*d[5mC]*dG*dA*d[5mC]*k[5mC]*k[5mC]*kT; antisense) [Compound 1074471]”, the “YAP1 (% UTC)” value under setting [6] amounted to 69 % UTC.
On to “1074960 (antisense k[5mC]*kT*kT*dA*dA*d[5mC]*d[5mC]*d[5mC]*dG*dG*dG*dT*dT*kT*kT*kT) [compound 1074960]”, for which the “YAP1 (% UTC)” value under setting [4] came to 81 % UTC.
Turning to “1075211 (antisense kA*kA*kT*dA*dA*dA*dG*dG*dG*dT*d[5mC]*d[5mC]*dT*kA*kA*k[5mC]) [Compound 1075211]”, the “YAP1 (% UTC)” value under setting [1] is on record as 91 % UTC.
For the substance “1076105 (kT*kA*k[5mC]*dG*dA*dA*dA*dT*dA*dG*dT*dA*dA*k[5mC]*kT*kG; antisense) [Compound 1076105]”, the “YAP1 (% UTC)” value under setting [10] turned out to be 13 % UTC.
For “1075753 (k[5mC]*kT*kA*dG*dA*dA*d[5mC]*d[5mC]*dT*dT*dT*dT*d[5mC]*k[5mC]*kA*kG; antisense) [Compound 1075753]”, the “YAP1 (% UTC)” value under setting [10] came to 65 % UTC.
As to “1075665 (antisense kA*kT*kT*dT*dA*dG*dT*dT*dG*dT*dG*d[5mC]*dA*k[5mC]*kA*kG) [compound 1075665]”, where the note is “Yap1 mRNA as percent of untreated control, A-431 cells, 3-10-3 cEt gapmers targeting SEQ ID NO.: 1, and 2, Table 31”, the “YAP1 (% UTC)” value was determined as 87 % UTC.
On to “1076229 (kA*kA*kT*dT*dA*dA*d[5mC]*d[5mC]*dT*d[5mC]*dA*dG*dT*kG*kA*kG; antisense) [Compound 1076229]”, for which the “YAP1 (% UTC)” value under setting [5] was determined as 91 % UTC.
As for “716401 (kA*kA*k[5mC]*dT*dG*dG*d[5mC]*dT*dA*d[5mC]*dG*d[5mC]*dA*kG*kG*kG; antisense) [Compound 716401]”, the “YAP1 (% UTC)” value under setting [9] came to 92 % UTC.
As to “1075248 (kG*kT*kA*d[5mC]*dA*dA*dA*dA*dA*dG*d[5mC]*dG*dG*kT*k[5mC]*kG; antisense) [compound 1075248]”, the “YAP1 (% UTC)” value under setting [4] is 64 % UTC.
As for “1074664 (antisense kG*k[5mC]*kA*dT*dT*d[5mC]*dT*dA*dG*dG*dT*dA*dG*kA*kA*kT) [Compound 1074664]”, the “YAP1 (% UTC)” value under setting [3] amounted to 49 % UTC.
For the substance “1074245 (antisense kA*kG*kA*dA*dG*dT*dA*dT*d[5mC]*dT*d[5mC]*dT*dG*kA*k[5mC]*k[5mC]) [Compound 1074245]”, under setting [5], the “YAP1 (% UTC)” value was determined as 5 % UTC.
Take “1075954 (kA*kT*kT*dT*dA*dA*dG*dG*d[5mC]*dT*dG*dT*dG*kT*kT*k[5mC]; antisense) [compound 1075954]”: the “YAP1 (% UTC)” value under setting [8] is recorded as 50 % UTC.
